Literature values, collected in patent publication US10458996B1, “Methods for determining clinical response to TNF-alpha and/or JAK inhibitors in subjects with inflammatory diseases” (Beth Israel Deaconess Medical Center, Inc., priority 2016, dated 2019).

Tested on: patients with moderate-to-severe CD
Details: week 24 of intervention; cited from earlier work

Cn1cnc([N+](=O)[O-])c1Sc1ncnc2nc[nH]c12 [azathioprine]
Mucosal healing rates: 16.5%
